What was measured:
Format in all cases: cell-based, human
Details in all cases: 48 hours
[1] = test system: breast cancer cell line ER−/PR−/HER2+ (SkBr3); assay: MTT proliferation, breast cancer cell line ER−/PR−/HER2+
Experimental: All cells were cultured in wells under vendor-recommended conditions and exposed to different concentrations of aprepitant for 48 hours. In each case a group of wells of cells were used to which no treatment was applied and which were considered as controls. At 48 hours the number of cells was measured. To measure cell viability, the cytotoxicity of drugs in culture was evaluated using the 3-(4,5-Dimethyl-2-thiazolyl)-2,5-diphenyl-2H-tetrazolium bromide (MTT) reduction assay. This assay assesses cell viability through the indirect measurement of the activity of reductases that convert yellow soluble MTT into purple insoluble formazan salts. As MTT can only be reduced when these enzymes are active, the reaction is used as an indicator of the cell metabolic competence and, therefore, of viability. A variable number of cells (depending on the cell line) were seeded in 96 multi-well plates and grown during 24 hours. The following day, the culture medium was aspirated and fresh culture medium with the drug dissolved was added to the wells. After 24 hours or 48 hours cell viability was measurement by adding 10 μl of a 5 mg/ml MTT solution (M5655; Sigma-Aldrich) and 100 μl of HCl 0.01M-SDS 10% solution 4 hours later. After 24 hours, the absorbance was measured at 595 nm, using a multi-well plate reader (iMark, Bio-rad). Each condition was tested 5 times, obtaining 5 values of absorbance. All sample measurements were corrected using the blank (culture medium without cells) mean absorbance value, and normalized to positive control to determinate relative cell viability for each condition at 24 and 48 hours.

[2] = test system: H441; assay: MTT proliferation, H441
Source text: (§1) EGFR, ALK and ROS1 are key molecular factors that may be used to determine pathological classification, prognosis, therapeutics and behaviour in patients with lung cancer. EGFR, ALK and ROS1 are biomarkers routinely analysed in the clinical practice of the management of patients with NSCLC. NSCLC with molecular profile EGFR-/ALK-/ROS1- presents a better response to treatment with the NK1 inhibitor aprepitant, compared to lung cancer with different profiles (in particular, EGFR+/ALK-/ROS1- and EGFR-/ALK+/ROS1-, in which EGFR and ALK respectively contain mutations relative to their wild type gene). Commercial lines of lung cancer were used as shown in Table 2 together with their molecular profile. The molecular profile of the cancer cell lines was determined by sequencing and can be consulted in the Cancer Cell Line Encyclopaedia database of public access available at the url: https://portals.broadinstitute.org/ccle All cells were cultured in wells under vendor-recommended conditions and exposed to different concentrations of aprepitant for 48 hours. In each case a group of wells of cells were used to which no treatment was applied and which were considered as controls. At 48 hours the number of cells was measured. Eight cell lines of human were used for the study of NK1 inhibitors (Table 3). All of them were maintained in culture in their respective culture media (Gibco,Thermo Fisher Scientific) supplemented with 10% foetal bovine serum (FBS) (Gibco, Thermo Fisher Scientific), 2 mM L-Glutamine (Gln) (Sigma-Aldrich, Merk), and […] and […] Gibco, Thermo Fisher Scientific) in a humidified incubator at 37° C. and 5% CO2. Cell culture media used are Dulbecco's Modified Eagle Medium (DMEM), and RPMI Medium 1640 (RPMI-1640). To measure cell viability, the cytotoxicity of drugs in culture was evaluated using the 3-(4,5-Dimethyl-2-thiazolyl)-2,5-diphenyl-2H-tetrazolium bromide (MTT) reduction assay. This assay assesses cell viability through the indirect measurement of the activity of reductases that convert yellow soluble MTT into purple insoluble formazan salts. As MTT can only be reduced when these enzymes are active, the reaction is used as an indicator of the cell metabolic competence and, therefore, of viability. A variable number of cells (depending on the cell line) were seeded in 96 multi-well plates and grown during 24 hours. The following day, the culture medium was aspirated and fresh culture medium with the drug dissolved was added to the wells. After 24 hours or 48 hours cell viability was measurement by adding 10 μl of a 5 mg/ml MTT solution (M5655; Sigma-Aldrich) and 100 μl of HCl 0.01M-SDS 10% solution 4 hours later. After 24 hours, the absorbance was measured at 595 nm, using a multi-well plate reader (iMark, Bio-rad). Each condition was tested 5 times, obtaining 5 values of absorbance. All sample measurements were corrected using the blank (culture medium without cells) mean absorbance value, and normalized to positive control to determinate relative cell viability for each condition at 24 and 48 hours.

[3] = test system: H460; assay: MTT proliferation, H460
Source text: as §1

[4] = test system: H520; assay: MTT proliferation, H520
Source text: as §1

[5] = test system: H358; assay: MTT proliferation, H358
Source text: as §1

## C[C@@H](O[C@H]1OCCN(Cc2nc(=O)[nH][nH]2)[C@H]1c1ccc(F)cc1)c1cc(C(F)(F)F)cc(C(F)(F)F)c1 [Aprepitant]
[1]; aprepitant 0.3 μM
  Mean proliferation: 99.8
[1]; aprepitant 1 μM
  Mean proliferation: 100.23
[1]; aprepitant 3 μM
  Mean proliferation: 95.65
[1]; aprepitant 10 μM
  Mean proliferation: 81.8
[1]; aprepitant 20 μM
  Mean proliferation: 65.97
[1]; aprepitant 30 μM
  Mean proliferation: 45.14
[1]; aprepitant 40 μM
  Mean proliferation: 32.62
[1]; aprepitant 50 μM
  Mean proliferation: 23.78
[1]; aprepitant 60 μM
  Mean proliferation: 12.87
[2]; aprepitant 1 μM
  Mean proliferation: 100.6
[2]; aprepitant 3 μM
  Mean proliferation: 90.97
[2]; aprepitant 5 μM
  Mean proliferation: 64.10
[2]; aprepitant 10 μM
  Mean proliferation: 61.08
[2]; aprepitant 20 μM
  Mean proliferation: 53.64
[2]; aprepitant 30 μM
  Mean proliferation: 37.56
[2]; aprepitant 40 μM
  Mean proliferation: 20.50
[2]; aprepitant 50 μM
  Mean proliferation: 3.14
[2]; aprepitant 60 μM
  Mean proliferation: 10.83
[3]; aprepitant 1 μM
  Mean proliferation: 91.72
[3]; aprepitant 3 μM
  Mean proliferation: 100.26
[3]; aprepitant 5 μM
  Mean proliferation: 67.81
[3]; aprepitant 10 μM
  Mean proliferation: 56.01
[3]; aprepitant 20 μM
  Mean proliferation: 31.24
[3]; aprepitant 30 μM
  Mean proliferation: 18.27
[3]; aprepitant 40 μM
  Mean proliferation: 14.74
[3]; aprepitant 50 μM
  Mean proliferation: −0.95
[3]; aprepitant 60 μM
  Mean proliferation: −1.95
[4]; aprepitant 1 μM
  Mean proliferation: 100.27
[4]; aprepitant 3 μM
  Mean proliferation: 98.27
[4]; aprepitant 5 μM
  Mean proliferation: 80.08
[4]; aprepitant 10 μM
  Mean proliferation: 66.40
[4]; aprepitant 20 μM
  Mean proliferation: 43.07
[4]; aprepitant 30 μM
  Mean proliferation: 29.80
[4]; aprepitant 40 μM
  Mean proliferation: 9.59
[4]; aprepitant 50 μM
  Mean proliferation: 5.78
[4]; aprepitant 60 μM
  Mean proliferation: −1.07
[5]; aprepitant 1 μM
  Mean proliferation: 101.3
[5]; aprepitant 3 μM
  Mean proliferation: 89.28
[5]; aprepitant 5 μM
  Mean proliferation: 87.69
[5]; aprepitant 10 μM
  Mean proliferation: 64.12
[5]; aprepitant 20 μM
  Mean proliferation: 43.44
[5]; aprepitant 30 μM
  Mean proliferation: 32.09
[5]; aprepitant 40 μM
  Mean proliferation: 27.23
[5]; aprepitant 50 μM
  Mean proliferation: 3.10
[5]; aprepitant 60 μM
  Mean proliferation: 2.86

— patent US20240082273A1, “NEUROKININ INHIBITORS SUCH AS APREPITANT FOR TREATING NON SMALL CELL LUNG CARCINOMA OR BREAST CANCER WITHOUT MUTATIONS” (priority 2020, published 2024)
